Experimental data from patent US5244895A, “Anti-ulcer agent” (Hidaka; Hiroyoshi, priority 1991, dated 1993).
Like-named read-outs stand apart in the source and are kept apart here.

Experiments:
Assay type in all cases: in vivo, Crj:Wistar rat (male)
[1] = test system: water immersion restriction stress ulcer; experiment: Water immersion restriction stress ulcer, oral administration; details: for Gastric damage index: 30 min before 6 h water immersion stress, control 15.7; for inhibition in vivo at 100 mg/kg: Rattus norvegicus, 6 h, read-out: Inhibition rate
Method: (§1) After the stress loading, the animal was killed by exsanguination and the cardia part of stomach was ligated and then 10 ml of 1% formalin was poured into the stomach and the stomach was extirpated. […] 0.5 ml/body weight of 1% pontamine sky blue physiological saline was injected intravenously 10 minutes before the slaughter. The test compound was administered after dissolved in physiological saline or in physiological saline containing Tween 80 added. Five […] of physiological saline was administered to the control group.

aspirin ulcer [2] = experiment: Anti-aspirin ulcer test, oral administration; details: 100 mg/kg oral, 6 h; for Gastric damage index: 30 min before aspirin 200 mg/kg oral, control 76.0; for inhibition in vivo at 100 mg/kg: Rattus norvegicus, gastric damage index vs control, aspirin 200 mg/kg, read-out: Inhibition rate
Method: (§2) Each 100 mg/kg of the test compounds was administered orally to a male Crj:Wistar rat of 198 to 243 g body weight fasted for ca. 24 hours (7 to 8 rats per group) and 30 minutes after the administration 200 mg/5 ml/kg of aspirin suspended in 0.5% sodium CMC aqueous solution was administered orally. Six hours later the animals was killed by exsanguination and the cardia part of stomach was ligated and 10 ml of 1% formaline solution was poured into the stomach and the stomach was extirpated. Then, it was incised along the greater curvature side and washed with physiological saline and the major axis of the spotted and linear erosion and ulcer were measured under a steromicroscope and their total sum per head was calculated as the gastric damage index (mm) and the effect was judged by the inhibiting rate against the control group [(Gastric damage index of the control group-Gastric damage index of the test compound)/Gastric damage index of the control group×100]. 0.5 ml/body weight of 1% pontamine sky blue physiological saline was injected intravenously 10 minutes before the slaughter. The test compound was administered after dissolved in physiological saline or in physiological saline containing Tween 80 added. Five […] of physiological saline was administered to the control group.

gastric juice secretion [3] = experiment: Anti-gastric juice secretion test, intraduodenal administration (pylorus ligation); details: 100 mg/kg intraduodenal, 4 h after pylorus ligation; for pH of gastric juice: control 1.7; for Amount of gastric juice: control 2.6; for Free hydrochloric acid: control 116; for Total acidity: control 168
Method: Each 100 mg/kg of the test compounds was administered duodenally to a male Crj:Wistar rat of 205 to 240 g body weight fasted for ca. 24 hours (7 to 8 rats per group) and immediately after the dose the pylorus was ligated under diethyl ether anesthesia. Four hours after the ligation, the animal was killed and the stomach was isolated and the amount and the pH of gastric juice and free hydrochloric acid contained in it and the total acidity of it were measured to examine the effect of inhibiting gastric juice secretion. The test compounds were dosed after dissolved in physiological saline or in physiological saline containing Tween 80 added. Five […] of physiological saline was administered to the control group.

[4] = test system: water immersion restriction stress ulcer; experiment: Water immersion restriction stress ulcer, intraperitoneal administration; details: 100 mg/kg intraperitoneal; for Gastric damage index: control 22.7; for Inhibition rate: gastric damage index vs control
Method: as §1

gastric juice secretion [5] = experiment: Anti-gastric juice secretion test, intraperitoneal administration (pylorus ligation); details: 100 mg/kg intraperitoneal, 30 min before pylorus ligation; for pH of gastric juice: control 1.7; for Amount of gastric juice: control 3.2; for Free hydrochloric acid: control 155; for Total acidity: control 208
aspirin ulcer [6] = experiment: Anti-aspirin ulcer test, intraperitoneal administration; details: for Gastric damage index: 100 mg/kg intraperitoneal (abdominally injected), control 58.8; for Inhibition rate: gastric damage index vs control, 100 mg/kg intraperitoneal
Method: as §2
Each 100 mg/kg of the test compound was abdominally injected to a male Crj:Wistar rat of 210 to 265 g body weight fasted for ca. 24 hours (7 to 8 rats per group) and the procedures were carried out in a same manner as in oral administration.

[7] = gastric damage index vs control, 100 mg/kg oral, water immersion stress

SMILES | Gastric damage index ([1]; 100 mg/kg oral) | inhibition in vivo at 100 mg/kg [1, 7] | Gastric damage index (aspirin ulcer [2]) | inhibition in vivo at 100 mg/kg (aspirin ulcer [2]) | pH of gastric juice (gastric juice secretion [3]) | Amount of gastric juice (gastric juice secretion [3]) | Free hydrochloric acid (gastric juice secretion [3]) | Total acidity (gastric juice secretion [3]) | Gastric damage index [4] | Inhibition rate [4] | pH of gastric juice (gastric juice secretion [5]) | Amount of gastric juice (gastric juice secretion [5]) | Free hydrochloric acid (gastric juice secretion [5]) | Total acidity (gastric juice secretion [5]) | Gastric damage index (aspirin ulcer [6]) | Inhibition rate (aspirin ulcer [6]) | inhibition in vivo at 100 mg/kg ([1]; po)
O=S(=O)(NC(Cc1ccc(O)cc1)CN1CCN(c2ccccc2)CC1)c1cccc2cnccc12 (stereo not drawn) [(1), N-[1-(p-hydroxybenzyl)-2-(4-phenylpiperazinyl)ethyl]-5-isoquinoline sulfonamide] | 10.5 mm | 33% | 40.1 mm | 47% | 2.0 | 2.2 ml/100 g body weight | 36 μEq/100 g body weight | 71 μEq/100 g body weight |  |  |  |  |  |  |  |  | 
CN(C(Cc1ccc(O)cc1)CN1CCN(c2cccc(Cl)c2)CC1)S(=O)(=O)c1cccc2cnccc12 (stereo not drawn) [(2), N-{2-[4-(m-chlorophenyl)piperazinyl]-1-(p-hydroxybenzyl)ethyl}-N-methyl-5-isoquinoline sulfonamide] | 9.7 mm | 38% | 40.3 mm | 46% | 2.1 | 2.1 ml/100 g body weight | 40 μEq/100 g body weight | 92 μEq/100 g body weight |  |  |  |  |  |  |  |  | 
O=S(=O)(NC(Cc1ccc(OS(=O)(=O)c2cccc3cnccc23)cc1)CN1CCN(c2ccc(F)cc2)CC1)c1cccc2cnccc12 (stereo not drawn) [(3), N-{2-[4-(p-fluorophenyl)piperazinyl]-1-(p-(5-isoquinolinesulfonyloxy)benzyl]ethyl}-5-isoquinoline sulfonamide] | 11.2 mm | 29% | 56.7 mm | 25% | 1.8 | 2.5 ml/100 g body weight | 82 μEq/100 g body weight | 140 μEq/100 g body weight |  |  |  |  |  |  |  |  | 
O=S(=O)(NC(Cc1ccc(O)cc1)CN1CCCN(c2ccccc2)CC1)c1cccc2cnccc12 (stereo not drawn) [(6), N-[1-(p-hydroxybenzyl)-2-(4-phenylhomopiperazinyl)ethyl]-5-isoquinolinesulfonamide] | 12.2 mm | 22% | 52.9 mm | 30% | 1.8 | 2.3 ml/100 g body weight | 53 μEq/100 g body weight | 87 μEq/100 g body weight |  |  |  |  |  |  |  |  | 
O=S(=O)(NC(Cc1ccc(O)cc1)CN1CCC(OCc2ccc(Cl)c(Cl)c2)CC1)c1cccc2cnccc12 (stereo not drawn) [(7), N-{1-(p-hydroxybenzyl)-2-[4-(3,4-dichlorobenzyloxy)piperidino]ethyl}-5-isoquinoline sulfonamide] | 5.4 mm | 66% | 26.9 mm | 65% | 2.5 | 1.2 ml/100 g body weight | 26 μEq/100 g body weight | 63 μEq/100 g body weight | 7.0 mm | 69% | 2.6 | 1.5 ml/100 g body weight | 32 μEq/100 body weight | 71 μEq/100 body weight | 15.3 mm | 74% | 
CN(C(Cc1ccc(O)cc1)CN1CCC(OCc2ccc(Cl)c(Cl)c2)CC1)S(=O)(=O)c1cccc2cnccc12 (stereo not drawn) [(8), N-{1-(p-hydroxybenzyl)-2-[4-(3,4-dichlorobenzyloxy)piperidino]ethyl}-N-methyl-5-isoquinoline sulfonamide] | 6.5 mm |  | 28.9 mm | 62% | 2.3 | 1.6 ml/100 g body weight | 32 μEq/100 g body weight | 68 μEq/100 g body weight |  |  |  |  |  |  |  |  | 59%
COc1ccc(CC(CN2CCC(OCc3ccc(Cl)c(Cl)c3)CC2)N(C)S(=O)(=O)c2cccc3cnccc23)cc1 (stereo not drawn) [(9), N-{1-(p-methoxybenzyl)-2-[4-(3,4-dichlorobenzyloxy)piperidino]ethyl}-N-methyl-5-isoquinoline sulfonamide] | 9.7 mm | 38% | 45.4 mm | 40% | 2.1 | 2.2 ml/100 g body weight | 44 μEq/100 g body weight | 89 μEq/100 g body weight |  |  |  |  |  |  |  |  | 
CN(C(Cc1ccc(OS(=O)(=O)c2cccc3cnccc23)cc1)CN1CCC(c2ccccc2)CC1)S(=O)(=O)c1cccc2cnccc12 (stereo not drawn) [(10), N-{1-(p-(5-isoquinolinesulfonyloxy)benzyl]-2-(4-phenylpiperidino)ethyl}-N-methyl-5-isoquinoline sulfonamide] | 11.2 mm | 29% | 48.3 mm | 37% | 1.8 | 2.4 ml/100 g body weight | 68 μEq/100 g body weight | 102 μEq/100 g body weight |  |  |  |  |  |  |  |  | 
CN(C(Cc1ccc(O)cc1)CN1CCC(c2ccccc2)CC1)S(=O)(=O)c1cccc2cnccc12 (stereo not drawn) [(11), N-[1-(p-hydroxybenzyl)-2-(4-phenylpiperidino)ethyl]-N-methyl-5-isoquinoline sulfonamide] | 6.8 mm | 57% | 27.3 mm | 64% | 2.5 | 1.5 ml/100 g body weight | 36 μEq/100 g body weight | 65 μEq/100 g body weight |  |  |  |  |  |  |  |  | 
O=C(C(Cc1ccc(OS(=O)(=O)c2cccc3cnccc23)cc1)NS(=O)(=O)c1cccc2cnccc12)N1CCN(c2ccccc2)CC1 (stereo not drawn) [(12), N-[N,O-bis(5-isoquinolinesulfonyl)tyrosyl]-4-phenylpiperizine] | 9.4 mm | 40% | 43.5 mm | 43% | 2.1 | 2.2 ml/100 g body weight | 41 μEq/100 g body weight | 80 μEq/100 g body weight |  |  |  |  |  |  |  |  | 
CN(C(Cc1ccc(OS(=O)(=O)c2cccc3cnccc23)cc1)C(=O)N1CCN(c2ccccc2)CC1)S(=O)(=O)c1cccc2cnccc12 (stereo not drawn) [(13), N-[N,O-bis(5-isoquinolinesulfonyl)-N-methyltyrosyl]-4-phenylpiperizine] | 5.4 mm | 66% | 30.3 mm | 60% | 2.3 | 1.9 ml/100 g body weight |  |  | 6.4 mm | 72% | 2.4 | 1.6 ml/100 g body weight | 55 μEq/100 body weight | 102 μEq/100 body weight | 17.6 mm | 70% | 
